Experimental data: US9255100B2 (BAYER INTELLECTUAL PROPERTY GMBH, priority 2010, dated 2016)

Target: T1, N-terminally GST-tagged human full length recombinant Mps-1 kinase (Homo sapiens, UniProt P33981)
T1 construct: N-terminally GST-tagged human full length recombinant Mps-1 kinase; purchased Invitrogen, Karslruhe, Germany PV4071
T1 sequence (P33981 1-857): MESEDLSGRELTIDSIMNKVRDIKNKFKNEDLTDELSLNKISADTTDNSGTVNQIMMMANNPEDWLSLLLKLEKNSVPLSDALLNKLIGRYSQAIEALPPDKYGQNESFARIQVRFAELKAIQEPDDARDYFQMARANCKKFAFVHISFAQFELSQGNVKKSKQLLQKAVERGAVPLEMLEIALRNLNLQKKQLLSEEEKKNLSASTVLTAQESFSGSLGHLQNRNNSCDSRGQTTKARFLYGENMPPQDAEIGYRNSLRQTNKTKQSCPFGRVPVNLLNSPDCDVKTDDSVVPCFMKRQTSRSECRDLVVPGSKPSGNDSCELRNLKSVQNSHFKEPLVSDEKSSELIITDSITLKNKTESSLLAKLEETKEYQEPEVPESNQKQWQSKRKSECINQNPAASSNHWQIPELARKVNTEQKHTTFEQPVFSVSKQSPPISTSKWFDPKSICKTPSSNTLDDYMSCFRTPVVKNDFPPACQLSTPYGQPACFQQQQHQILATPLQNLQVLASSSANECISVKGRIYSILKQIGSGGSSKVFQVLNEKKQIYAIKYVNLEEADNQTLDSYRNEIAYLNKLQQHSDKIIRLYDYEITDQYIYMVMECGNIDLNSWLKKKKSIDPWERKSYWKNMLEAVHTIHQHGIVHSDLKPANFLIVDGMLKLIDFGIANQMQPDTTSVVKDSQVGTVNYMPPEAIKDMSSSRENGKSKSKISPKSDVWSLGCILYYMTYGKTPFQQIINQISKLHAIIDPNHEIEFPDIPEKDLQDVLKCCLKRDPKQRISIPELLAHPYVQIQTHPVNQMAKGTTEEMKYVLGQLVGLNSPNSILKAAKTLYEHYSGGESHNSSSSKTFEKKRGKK
Experiment: Mps-1 kinase assay (TR-FRET)
Format: biochemical
Settings: Mps1 IC50 [nM], 10 μM ATP, 1 μM peptide substrate, 60 min at 22° C.
How it was run: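 GST-tagged full-length recombinant Mps-1 at about 1 nM final, adjusted per lot for linear range, phosphorylated a biotinylated peptide. Product bound Eu-anti-phospho(Ser/Thr) antibody over 1 h at 22° C and was read by TR-FRET to streptavidin-XLent. Compounds scored for kinase inhibition.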

Row | SMILES | IC50
1 | CNc1cc(Oc2ccc(F)c(F)c2)nn2c(-c3ccc(C(=O)NC4CC4)c(C)c3)cnc12 [Example 529, N-cyclopropyl-4-[6-(3,4-difluorophenoxy)-8-(methylamino)imidazo [1,2-b]pyridazin-3-yl]-2-methylbenzamide] | 0.4 nM
2 | Cc1cc(-c2cnc3c(NCC(C)C)cc(-c4cncc(C#N)c4)nn23)ccc1C(=O)NC1CC1 [Example 213, 4-{6-(5-Cyanopyridin-3-yl)-8-(isobutylamino)imidazo[1,2-b]pyridazin-3-yl}-N-cyclopropyl-2-methylbenzamide] | < 1 nM
3 | Cc1cc(-c2cnc3c(NCC4CCS(=O)(=O)CC4)cc(Oc4ccccc4F)nn23)ccc1C(=O)NC1CC1 [Example 297, N-cyclopropyl-4-[8-{[(1,1-dioxidotetrahydro-2H-thiopyran-4-yl)methyl]amino}-6-(2-fluorophenoxy)imidazo[1,2-b]pyridazin-3-yl]-2-methylbenzamide] | 0.1 nM
4 | Cc1cc(-c2cnc3c(NCCC(F)(F)F)cc(Cc4cccc(Br)c4)nn23)ccc1C(=O)NC1CC1 [Example 485, 4-{6-(3-bromobenzyl)-8-[(3,3,3-trifluoropropyl)amino]imidazo [1,2-b]pyridazin-3-yl}-N-cyclo-propyl-2-methylbenzamide] | 0.4 nM
5 | Cc1cc(-c2cnc3c(NCC(F)F)cc(Oc4cccc(F)c4)nn23)ccc1C(=O)NC1CC1 [Example 512, N-cyclopropyl-4-{8-[(2,2-difluoro-ethyl)amino]-6-(3-fluoro-phenoxy)imidazo[1,2-b]pyridazin-3-yl}-2-methylbenzamide] | 0.1 nM
6 | Cc1cc(-c2cnc3c(NCCC(F)(F)F)cc(Sc4ccccc4CO)nn23)ccc1C(=O)NC1CC1 [Example 270, N-cyclopropyl-4-(6-{[2-(hydroxymethyl)phenyl]sulfanyl}-8-[(3,3,3-trifluoropropyl)amino]imidazo[1,2-b]pyridazin-3-yl)-2-methylbenzamide] | 0.1 nM
7 | Cc1cc(-c2cnc3c(NCCCN(C)C)cc(Oc4cccc(F)c4)nn23)ccc1C(=O)NC1CC1 [Example 312, N-cyclopropyl-4-[8-{[3-(dimethylamino)propyl]amino}-6-(3-fluorophenoxy)imidazo[1,2-b]pyridazin-3-yl]-2-methyl-benzamide] | 0.2 nM
8 | Cc1cc(-c2cnc3c(NCCC(F)(F)F)cc(Oc4cccc5c4NCCC5)nn23)ccc1C(=O)NC1CC1 [Example 466, N-cyclopropyl-2-methyl-4-{6-(1,2,3,4-tetrahydro-quinolin-8-yloxy)-8-[(3,3,3-trifluoropropyl)amino]imidazo[1,2-b]pyridazin-3-yl} benzamide] | 4.8 nM
9 | Cc1cc(-c2cnc3c(NCC(C)(C)O)cc(Sc4ncc[nH]4)nn23)ccc1C(=O)NC1CC1 [Example 318, N-cyclopropyl-4-{8-[(2-hydroxy-2-methylpropyl)amino]-6-(1H-imidazol-2-ylsulfanyl)imidazo[1,2-b]pyridazin-3-yl}-2-methylbenzamide] | 64.3 nM
10 | Cc1cc(-c2cnc3c(NC[C@H]4CC[S@+]([O-])CC4)cc(Oc4cccnc4)nn23)ccc1C(=O)NC1CC1 [Example 296C, N-cyclopropyl-2-methyl-4-[8-({[(trans)-1-oxidotetrahydro-2H-thiopyran-4-yl]methyl}amino)-6-(pyridin-3-yloxy)imidazo[1,2-b]pyridazin-3-yl]benzamide] | 0.2 nM
11 | Cc1cc(-c2cnc3c(NCC(C)(C)O)cc(Oc4cncc(C(N)=O)c4)nn23)ccc1C(=O)NC1CC1 [Example 411, 5-({3-[4-(cyclopropylcarbamoyl)-3-methylphenyl]-8-[(2-hydroxy-2-methylpropyl)amino]imidazo[1,2-b]pyridazin-6-yl}oxy)nicotinamide] | 4.8 nM
12 | Cc1cc(-c2cnc3c(NCC(C)(C)O)cc(SCCC(C)(C)C)nn23)ccc1C(=O)NC1CC1 [Example 217, N-cyclopropyl-4-{6-[(3,3-dimethylbutyl)sulfanyl]-8-[(2-hydroxy-2-methylpropyl)amino]imidazo[1,2-b]pyridazin-3-yl}-2-methylbenzamide] | 3.6 nM
13 | Cc1ccc(Cc2cc(NCCC(F)(F)F)c3ncc(-c4ccc(C(=O)NC5CC5)c(C)c4)n3n2)cc1F [Example 484, N-cyclopropyl-4-{6-(3-fluoro-4-methylbenzyl)-8-[(3,3,3-tri-fluoropropyl)amino]imidazo [1,2-b]pyridazin-3-yl}-2-methylbenzamide] | 0.3 nM
14 | CC=Cc1cc(NCC(C)(C)O)c2ncc(-c3ccc(C(=O)NC4CC4)c(C)c3)n2n1 (mixture of isomers) [Example 24, N-cyclopropyl-4-{8-[(2-hydroxy-2-methylpropyl)amino]-6-[(1E/Z)-prop-1-en-1-yl]imidazo[1,2-b]pyridazin-3-yl}-2-methylbenzamide] | 23.8 nM
15 | Cc1ccc(Sc2cc(NCCC(F)(F)F)c3ncc(-c4ccc(C(=O)NC5CC5)c(C)c4)n3n2)c(F)c1 [Example 362, N-cyclopropyl-4-{6-[(2-fluoro-4-methylphenyl)sulfanyl]-8-[(3,3,3-trifluoropropyl)amino]imidazo[1,2-b]pyridazin-3-yl}-2-methylbenzamide] | 0.2 nM
16 | Cc1cc(-c2cnc3c(NCCC(F)(F)F)cc(OCC(F)(F)C(F)(F)CO)nn23)ccc1C(=O)NC1CC1 [Example 278A, N-cyclopropyl-2-methyl-4-{6-(2,2,3,3-tetrafluoro-4-hydroxybutoxy)-8-[(3,3,3-trifluoropropyl)amino]imidazo[1,2-b]pyridazin-3-yl}benzamide] | 0.4 nM
17 | Cc1cc(-c2cnc3c(NCC(C)(C)O)cc(Oc4ccc(F)cc4)nn23)ccc1C(=O)NC1CC1 [Example 253, N-cyclopropyl-4-{6-(4-fluorophenoxy)-8-[(2-hydroxy-2-methylpropyl)amino]imidazo[1,2-b]pyridazin-3-yl}-2-methylbenzamide] | 0.3 nM
18 | Cc1cc(-c2cnc3c(NCCC(F)(F)F)cc(Sc4cccc(F)c4F)nn23)ccc1C(=O)NC1CC1 [Example 252, N-cyclopropyl-4-{6-[(2,3-difluorophenyl)sulfanyl]-8-[(3,3,3-trifluoropropyl)amino]imidazo[1,2-b]pyridazin-3-yl}-2-methylbenzamide] | 0.2 nM
19 | CNc1cc(Oc2ccc(OC)cc2F)nn2c(-c3ccc(C(=O)NC4CC4)c(C)c3)cnc12 [Example 534, N-cyclopropyl-4-[6-(2-fluoro-4-methoxy-phenoxy)-8-(methyl-amino)imidazo[1,2-b]pyridazin-3-yl]-2-methylbenzamide] | 0.1 nM
20 | Cc1cc(-c2cnc3c(NCC4CNC4)cc(-c4ccccc4CO)nn23)ccc1C(=O)NC1CC1 [Example 338, 4-{8-[(azetidin-3-ylmethyl)amino]-6-[2-(hydroxymethyl)phenyl]imidazo[1,2-b]pyridazin-3-yl}-N-cyclo-propyl-2-methylbenzamide] | 83.9 nM
21 | CC=C(C)c1cc(NCC(C)(C)O)c2ncc(-c3ccc(-c4cnc(C5CC5)[nH]4)cc3)n2n1 (mixture of isomers) [Example 1, 1-({6-[(2E/Z)-But-2-en-2-yl]-3-[4-(2-cyclopropyl-1H-imidazol-5-yl)phenyl]imidazo[1,2-b]pyridazin-8-yl}amino)-2-methylpropan-2-ol] | 61.1 nM
22 | CC(C)CNc1cc(-c2cccc3ccccc23)nn2c(-c3ccc(C(=O)NC4CC4)cc3)cnc12 [Example 102, N-cyclopropyl-4-{8-[(2-methylpropyl)amino]-6-(naphthalen-1-yl)imidazo[1,2-b]pyridazin-3-yl}benzamide] | 24.6 nM
23 | Cc1cc(-c2cnc3c(NCC4CC(=O)N(C)C4)cc(-c4ccccc4CO)nn23)ccc1C(=O)NC1CC1 (stereo not shown) [Example 344, N-cyclopropyl-4-(6-[2-(hydroxy-methyl)phenyl]-8-{[(1-methyl-5-oxo-pyrrolidin-3-yl)methyl]amino}imidazo[1,2-b]pyridazin-3-yl)-2-methyl-benzamide] | 23 nM
24 | Cc1cccc(-c2cc(NCC(C)C)c3ncc(-c4ccc(C(=O)NC5CC5)cc4)n3n2)c1C [Example 106, N-cyclopropyl-4-{6-(2,3-dimethylphenyl)-8-[(2-methylpropyl)amino]imidazo[1,2-b]pyridazin-3-yl}benzamide] | 8.9 nM
25 | Cc1cc(-c2cnc3c(NCC(C)(C)O)cc(Nc4ccc(Cl)cc4F)nn23)ccc1C(=O)NC1CC1 [Example 348, 4-{6-[(4-chloro-2-fluorophenyl)amino]-8-[(2-hydroxy-2-methylpropyl)amino]imidazo[1,2-b]pyridazin-3-yl}-N-cyclopropyl-2-methylbenzamide] | 1.5 nM
